Results reported in patent US20240010987A1, “IN VITRO LIVER DISEASE MODEL USING TRIPLE CO-CULTURE AND PREPARATION METHOD THEREOF” (FUTURE MEDICINE CO., LTD., priority 2020, published 2024).

Key:
[1] = test system: HuH-7:LX-2:ImKC triple co-culture; assay: Marker changes in triple co-culture in vitro liver disease model (steatosis, inflammation, fibrosis) after drug treatment; format: cell-based, human (HuH-7, mouse (ImKC); conditions: hepatic steatosis (FFA), inflammation (FFA+LPS) or fibrosis (FFA+TGF-β1) induced; FIGS. 5 to 14
Experimental: After the cells were fixed for 1 hour for direct co-culture, a 0.4 μm pore size cell culture insert (Corning™) was positioned on top of a direct co-culture dish for indirect co-culture of the corresponding cells with an immortalized mouse Kupffer cell line (ImKC). The cell suspensions of the immortalized mouse Kupffer cell line (ImKC) were added to the positioned cell culture insert (Corning™) such that the number of cells per area was 15,000 cells/cm^2, and the cells were cultured in a CO2 incubator (Thermo Scientific™) under 37° C. and 5% CO2 conditions for 24 hours (FIG. 1).
The cell culture dishes for each experimental group shown in the following Table 3, which was cultured for 24 hours in a CO2 incubator (Thermo Scientific™) under 37° C. and 5% CO2 conditions at 24 hours before FFA treatment, were taken out, the cell culture medium was carefully discarded, and a co-culture medium including 1,000 μM FFA (oleic:palmitic molar ratio 2:1) was added thereto. After FFA treatment, the cell culture dishes were incubated in a CO2 incubator (Thermo Scientific™) under 37° C. and 5% CO2 conditions for 144 hours. The co-culture medium including FFA was replaced at 48 and 96 hours after FFA treatment (FIG. 4).
The cell culture dishes for each experimental group shown in Table 3, which was cultured in a CO2 incubator (Thermo Scientific™) under 37° C. and 5% CO2 conditions at 72 and 96 hours before LPS treatment, were taken out, the cell culture medium was carefully discarded, and a culture medium including 0.5 ng/ml LPS was added to 1,000 μM FFA (oleic:palmitic molar ratio 2:1). After LPS treatment, the cell culture dishes were incubated in a CO2 incubator (Thermo Scientific™) under 37° C. and 5% CO2 conditions for 48 and 72 hours. […]
The absorbance of each cell culture treated with FM101 and the control material was measured in the same manner as in Experimental Example 3-1.
The absorbance of each cell culture treated with FM101 and the control material was measured in the same manner as in Experimental Example 3-2. […]

A3 adenosine receptor = conditions: in vivo experiments, EXCLI J. 2020 Feb. 12; 19:187-200; cited from earlier work

| Compound | responsiveness of markers in triple co-culture cells on drug treatment, compared to directly co-cultured cells [1] | modulation of A3 adenosine receptor as A3AR ligand (A3 adenosine receptor) |
| --- | --- | --- |
| CNC(=O)[C@H]1O[C@@H](n2cnc3c(NCc4cccc(I)c4)nc(Cl)nc32)[C@H](O)[C@@H]1O [CF102, Namodenoson] | higher responsiveness and more concentration-dependent responsiveness | – |
| OC1CSC(n2cnc3c(NCc4cccc(Cl)c4)nc(Cl)nc32)C1O (stereo not shown) [FM101] | higher responsiveness and more concentration-dependent responsiveness | modulates an A3 adenosine receptor |
| CC(C)c1cc(Oc2c(Cl)cc(-n3nc(C#N)c(=O)[nH]c3=O)cc2Cl)n[nH]c1=O [MGL-3196, Resmetirom] | higher responsiveness and more concentration-dependent responsiveness | – |
